Biological target: Bcl-2-related protein A1 (Mus musculus) (UniProt Q07440)
Assay: small-molecule antagonists of Bfl-1/BH3 interaction – biochemical, TR-FRET, mouse Bfl-1, confirmation (AID 621)
Settings: TR-FRET Bfl-1 BH3 peptide binding displacement

Bcl-2-related protein A1 (Mus musculus), sequence (Q07440 whole entry, looked up): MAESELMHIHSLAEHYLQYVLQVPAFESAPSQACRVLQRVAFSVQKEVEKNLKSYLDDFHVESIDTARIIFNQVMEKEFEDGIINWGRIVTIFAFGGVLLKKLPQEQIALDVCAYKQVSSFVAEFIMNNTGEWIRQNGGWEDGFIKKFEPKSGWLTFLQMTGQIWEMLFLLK

**Q.** For CCn1c(SCC(=O)O)nc2sc3c(c2c1=O)CCC3, which IC50 is on record?
**A.** Its IC50 is 14.5 µM.

**Q.** With Nc1ccc2ncccc2c1N as the compound, how does the IC50 read?
**A.** The IC50 was 3.49 µM.
